Columns and labels:
human D2R/β-arrestin [1] = target: T1, human D2R/β-arrestin (Homo sapiens (Human), UniProt P14416); test: Gi/cAMP agonist assay (Lance Ultra cAMP, forskolin); type: cell-based; conditions: CHO-K1 cells expressing human D2R/β-arrestin; agonist mode, 2.5 μM forskolin
Experimental: Eu-cAMP tracer solution (10 μl, PerkinElmer, 360 μl of Tracer in 17.64 ml kit buffer) and ULight-anti-cAMP solution (10 μl, 120 μL antibody in 17.88 ml kit buffer) was then added to each well.

human D2R/β-arrestin [2] = target: T1, human D2R/β-arrestin; test: cell-based; conditions: β-arrestin Antagonist
human D2R/β-arrestin [3] = target: T1, human D2R/β-arrestin; test: cell-based; conditions: cAMP Antagonist
human D2R/β-arrestin [4] = target: T1, human D2R/β-arrestin; test: β-arrestin agonist assay (PathHunter); type: cell-based; conditions: CHO-K1 cells expressing human D2R/β-arrestin; agonist mode
Experimental: The detection reagent (9.6 μL, Buffer:Emerald II:Galactor-Star in a 19:5:1 ratio, i.e., 14.06 mL:3.7 mL:0.74 mL=18.5 mL) was then added to the agonist plates.

[5] = CHO-K1 cells expressing human D2R/β-arrestin, antagonist mode, quinpirole 130 nM
[6] = CHO-K1 cells expressing human D2R/β-arrestin, antagonist mode, 2.5 μM forskolin and 2.7 nM quinpirole

T1 sequence (P14416 whole entry): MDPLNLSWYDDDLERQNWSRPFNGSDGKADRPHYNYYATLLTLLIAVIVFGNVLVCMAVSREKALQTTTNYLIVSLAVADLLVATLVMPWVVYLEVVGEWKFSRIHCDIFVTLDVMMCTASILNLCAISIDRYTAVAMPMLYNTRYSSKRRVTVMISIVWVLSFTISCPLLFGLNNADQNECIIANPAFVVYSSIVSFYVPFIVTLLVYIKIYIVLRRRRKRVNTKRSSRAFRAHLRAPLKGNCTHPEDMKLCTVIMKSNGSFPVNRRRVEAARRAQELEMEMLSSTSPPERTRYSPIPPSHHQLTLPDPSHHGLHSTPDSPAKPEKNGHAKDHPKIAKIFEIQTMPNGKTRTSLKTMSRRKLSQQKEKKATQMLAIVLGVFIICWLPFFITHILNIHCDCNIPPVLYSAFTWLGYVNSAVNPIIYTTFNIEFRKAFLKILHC

EC50 (human D2R/β-arrestin [1])	IC50 (human D2R/β-arrestin [2]; [5])	IC50 (human D2R/β-arrestin [3]; [6])	EC50 (human D2R/β-arrestin [4])	SMILES	IC50 (human D2R/β-arrestin [2])	IC50 (human D2R/β-arrestin [3])
1 to 10 µM	10 to 30 µM	> 30 µM	> 30 µM	CC1(Oc2ccc(Cl)cc2)CCN(CCOc2ccc(C#N)cc2)CC1 [Compound 185, 4-(2-(4-(4-chlorophenoxy)-4-methylpiperidin-1-yl)ethoxy)benzonitrile]	–	–
0.1 to 1 µM	> 30 µM	> 30 µM	> 30 µM	CC1(Oc2ccc(Cl)cc2)CCN(CCOc2ccc3cccc(C(F)(F)F)c3n2)CC1 [Compound 171, 2-(2-(4-(4-chlorophenoxy)-4-methylpiperidin-1-yl)ethoxy)-8-(trifluoromethyl)quinoline]	–	–
> 30 µM	1 to 10 µM	0.1 to 1 µM	> 30 µM	CC1(Oc2ccc(Cl)cc2)CCN(CCOc2ccccc2C(F)(F)F)C1 (centres unmarked) [Compound 8, 3-(4-chlorophenoxy)-3-methyl-1-(2-(2-(trifluoromethyl)phenoxy)ethyl) pyrrolidine]	–	–
0.1 to 1 µM	0.1 to 1 µM	1 to 10 µM	> 30 µM	COc1ccccc1OCCN1CCC(C)(Oc2ccc(Cl)cc2)CC1 [Compound 188, 4-(4-chlorophenoxy)-1-(2-(2-methoxyphenoxy)ethyl)-4-methylpiperidine]	–	–
< 0.1 µM	1 to 10 µM	> 30 µM	0.1 to 1 µM	CC1(O)CCN(CCOc2ccccc2F)CC1 [Compound 131, 1-(2-(2-fluorophenoxy)ethyl)-4-methylpiperidin-4-ol]	–	–
> 30 µM	1 to 10 µM	1 to 10 µM	> 30 µM	FC1(Cc2ccccc2)CCN(CCOc2ccccc2C(F)(F)F)CC1 [Compound 115, 4-benzyl-4-fluoro-1-(2-(2-(trifluoromethyl)phenoxy)ethyl)piperidine]	–	–
0.1 to 1 µM	1 to 10 µM	0.1 to 1 µM	> 30 µM	CC1(Oc2ccc(Cl)cc2)CCN(CCOc2ccc(F)cc2S(C)(=O)=O)CC1 [Compound 158, 4-(4-chlorophenoxy)-1-(2-(4-fluoro-2-(methylsulfonyl)phenoxy)ethyl)-4-methylpiperidine]	–	–
> 30 µM	0.1 to 1 µM	< 0.1 µM	> 30 µM	CC1(O)CCN(CCOc2ccccc2C(F)(F)F)CC1 [Compound 124, 4-Methyl-1-(2-(2-(trifluoromethyl)phenoxy)ethyl)piperidin-4-ol]	–	–
0.1 to 1 µM	1 to 10 µM	0.1 to 1 µM	> 30 µM	CC1(C(=O)Nc2ccccc2)CCN(CC2COc3ccccc3O2)CC1 (centres unmarked) [Compound 204, 1-((2,3-dihydrobenzo[b][1,4]dioxin-2-yl)methyl)-4-methyl-N-phenylpiperidine-4-carboxamide]	–	–
1 to 10 µM	> 30 µM	> 30 µM	> 30 µM	CC(=O)N(C)C1(C)CCN(C[C@H]2COc3ccccc3O2)CC1 [Compound 213, (S)—N-(1-((2,3-dihydrobenzo[b][1,4]dioxin-2-yl)methyl)-4-methylpiperidin-4-yl)-N-methylacetamide]	–	–
> 30 µM	1 to 10 µM	1 to 10 µM	> 30 µM	CC1(Oc2ccc(Cl)cc2)CCN(CCOc2ccc(C(C)(C)O)cc2)CC1 [Compound 155, 2-(4-(2-(4-(4-chlorophenoxy)-4-methylpiperidin-1-yl)ethoxy)phenyl)propan-2-ol]	–	–
0.1 to 1 µM	10 to 30 µM	> 30 µM	> 30 µM	CC1(Oc2cccc(Cl)c2Cl)CCN(CCOc2ccccc2)C1 (centres unmarked) [Example 49, 3-(2,3-dichlorophenoxy)-3-methyl-1-(2-phenoxyethyl)pyrrolidine]	–	–

The remaining lines, values behind:

SMILES	EC50 (human D2R/β-arrestin [1])	IC50 (human D2R/β-arrestin [2]; [5])	IC50 (human D2R/β-arrestin [3]; [6])	EC50 (human D2R/β-arrestin [4])	IC50 (human D2R/β-arrestin [2])	IC50 (human D2R/β-arrestin [3])
CC1(Oc2ccc(Cl)cc2)CCN(CCOc2ccccc2)CC1 [Compound 38, 4-(4-chlorophenoxy)-4-methyl-1-(2-phenoxyethyl)piperidine]	< 0.1 µM	> 30 µM	> 30 µM	0.1 to 1 µM	–	–
CN(C1CCCCC1)C1(C)CCN(CCOc2ccccc2C(F)(F)F)CC1 [Compound 217, N-cyclohexyl-N,4-dimethyl-1-(2-(2-(trifluoromethyl)phenoxy)ethyl)piperidin-4-amine]	0.1 to 1 µM	–	–	> 30 µM	1 to 10 µM	1 to 10 µM
CC1(C)OC(c2ccccc2)C2(CCN(CCOc3ccccc3C(F)(F)F)CC2)O1 (centres unmarked) [Compound 119]	> 30 µM	1 to 10 µM	1 to 10 µM	> 30 µM	–	–
CC1(Oc2ccc(Cl)cc2)CCN(CCCCOc2ccccc2Cl)C1 (centres unmarked) [Compound 28, 3-(4-chlorophenoxy)-1-(4-(2-chlorophenoxy)butyl)-3-methylpyrrolidine]	> 30 µM	0.1 to 1 µM	< 0.1 µM	> 30 µM	–	–
CC1(Oc2cccc(C(F)(F)F)c2)CCN(CCOc2ccccc2F)C1 (centres unmarked) [Example 64, 1-(2-(2-fluorophenoxy)ethyl)-3-methyl-3-(3-(trifluoromethyl)phenoxy) pyrrolidine]	0.1 to 1 µM	10 to 30 µM	> 30 µM	> 30 µM	–	–
FC(F)(F)c1ccccc1OCCN1CCC2(CC1)CC2c1ccccc1 (centres unmarked) [Example 102, 1-Phenyl-6-(2-(2-(trifluoromethyl)phenoxy)ethyl)-6-azaspiro[2.5]octane]	0.1 to 1 µM	1 to 10 µM	1 to 10 µM	> 30 µM	–	–
CC1(C(=O)Nc2ccccc2)CCN(CCOc2ccccc2F)CC1 [Compound 220, 1-(2-(2-fluorophenoxy)ethyl)-4-methyl-N-phenylpiperidine-4-carboxamide]	0.1 to 1 µM	0.1 to 1 µM	0.1 to 1 µM	> 30 µM	–	–
CC1(Oc2ccccn2)CCN(CCOc2ccccc2)C1 (centres unmarked) [Example 57, 2-((3-methyl-1-(2-phenoxyethyl)pyrrolidin-3-yl)oxy)pyridine]	0.1 to 1 µM	1 to 10 µM	> 30 µM	> 30 µM	–	–
COc1ccc(F)cc1OCCN1CCC(C)(Oc2ccc(Cl)cc2)CC1 [Compound 159, 4-(4-chlorophenoxy)-1-(2-(5-fluoro-2-methoxyphenoxy)ethyl)-4-methylpiperidine]	< 0.1 µM	0.1 to 1 µM	1 to 10 µM	> 30 µM	–	–
CC1(Oc2ccccc2)CCN(CCn2cccc(C(F)(F)F)c2=O)CC1 [Example 77, 1-(2-(4-methyl-4-phenoxypiperidin-1-yl)ethyl)-3-(trifluoromethyl)pyridin-2(1H)-one]	10 to 30 µM	> 30 µM	> 30 µM	> 30 µM	–	–
CC1(Oc2ccc([N+](=O)[O-])cc2)CCN(CCOc2ccccc2)C1 (centres unmarked) [Example 43, 3-Methyl-3-(4-nitrophenoxy)-1-(2-phenoxyethyl)pyrrolidine]	> 30 µM	1 to 10 µM	> 30 µM	> 30 µM	–	–
CC1(Oc2ccc(Cl)cc2)CCN(CCOc2cccc(Cl)c2)C1 (centres unmarked) [Compound 10, 3-(4-chlorophenoxy)-1-(2-(3-chlorophenoxy)ethyl)-3-methylpyrrolidine]	< 0.1 µM	1 to 10 µM	> 30 µM	> 30 µM	–	–
CC1(NC(=O)C(F)(F)F)CCN(C[C@H]2COc3ccccc3O2)CC1 [Compound 212, (S)—N-(1-((2,3-dihydrobenzo[b][1,4]dioxin-2-yl)methyl)-4-methylpiperidin-4-yl)-2,2,2-trifluoroacetamide]	< 0.1 µM	0.1 to 1 µM	> 30 µM	1 to 10 µM	–	–
OC1(Cc2ccccc2)CCN(CCOc2ccccc2C(F)(F)F)CC1 [Compound 114, 4-benzyl-1-(2-(2-(trifluoromethyl)phenoxy)ethyl)piperidin-4-ol]	> 30 µM	< 0.1 µM	< 0.1 µM	> 30 µM	–	–
COc1ccccc1OCCN1CCC(C)(Oc2ccc(Cl)cc2)C1 (centres unmarked) [Compound 2, 3-(4-Chlorophenoxy)-1-(2-(2-methoxyphenoxy)ethyl)-3-methyl pyrrolidine]	> 30 µM	0.1 to 1 µM	0.1 to 1 µM	> 30 µM	–	–
CC1(Oc2ccc(Cl)cc2)CCN(CCOc2cnccc2C(F)(F)F)CC1 [Compound 128, 3-(2-(4-(4-chlorophenoxy)-4-methylpiperidin-1-yl)ethoxy)-4-(trifluoromethyl)pyridine]	1 to 10 µM	1 to 10 µM	0.1 to 1 µM	> 30 µM	–	–
CC1(O)CCCN(CCOc2ccccc2C(F)(F)F)C1 (centres unmarked) [Compound 134, 3-Methyl-1-(2-(2-(trifluoromethyl)phenoxy)ethyl)piperidin-3-ol]	> 30 µM	10 to 30 µM	1 to 10 µM	> 30 µM	–	–
CC1(Oc2ccccc2)CCN(CCOc2ccccc2Cl)CC1 [Example 89, 1-(2-(2-Chlorophenoxy)ethyl)-4-methyl-4-phenoxypiperidine]	< 0.1 µM	< 0.1 µM	> 30 µM	< 0.1 µM	–	–
CC(=O)c1ccc(OCCN2CCC(C)(Oc3ccc(Cl)cc3)CC2)cc1 [Compound 153, 1-(4-(2-(4-(4-chlorophenoxy)-4-methylpiperidin-1-yl)ethoxy)phenyl)ethanone]	> 30 µM	1 to 10 µM	1 to 10 µM	> 30 µM	–	–
CC(=O)c1cc(F)ccc1OCCN1CCC(C)(Oc2ccc(Cl)cc2)CC1 [Compound 187, 1-(2-(2-(4-(4-chlorophenoxy)-4-methylpiperidin-1-yl)ethoxy)-5-fluorophenyl)ethan-1-one]	0.1 to 1 µM	1 to 10 µM	1 to 10 µM	> 30 µM	–	–

— patent US11498896B2 (The Broad Institute, Inc., priority 2014, dated 2022)
